# In patent US20140341853A1, “Bacteria-Mediated Therapy for Cancer” (priority 2013, published 2014):
# Test system: yeast cells
# Assay: MTT assay using transformed E. coli, yeast cells and Daun02 as the prodrug
# Type: cell-based
# Procedure: In an exemplary embodiment, E. coli BL21 cells were transformed with the pSV-β-Galactosidase plasmid which contains a gene for beta-gal (available from Promega, Wisconsin, USA). Other types of bacteria and differently configured plasmids can also be used. Yeast can act as a eukaryotic cell model for cancer cells. Yeast cells contain mitochondria and a number of proteins homologous to those in humans. A MTT assay was performed using the transformed E. coli, yeast cells, and Daun02 as the prodrug. MTT is a tetrazolium dye which is converted into an insoluble purple-colored product (formazan) by live cells. The presence of formazan was measured spectrophotometrically. […] FIGS. 2A and 2B illustrate results of studies in which growing yeast cells were exposed to transformed E. coli BL21 cells and the prodrug Daun02. Bacteria and yeast were cultured over night and allowed to grow for 3 hours to be in optimal linear growth phase and samples were incubated together for approximately 5.5 or 10 hours in a 96 well microwell plate. The antibiotic kanamycin was added to all sample wells to reduce bacterial background signal. MTT dye was then added to wells and samples were incubated for three hours. A solubilization solution was then added, incubated for one hour, and the optical density was measured at 570 nm with a microplate reader. The absorbance at 570 nm of bacteria-only and bacteria and yeast-only samples were also measured. […] FIGS. 2A and 2B display results from different treatment times: 5.5 hours and 10 hours, respectively. […] Samples C and D contained beta-gal expressing bacteria, prodrug, and yeast cells. […] The length of time can be increased or decreased to increase the effectiveness of the treatment. […] A 2-Sample T-Test between the control sample and Sample C in the 10 hour experiment returned a p-value of 0.00296. […] Both p-values are smaller than the alpha level of 0.05 chosen before experimentation.
smiles,measurement,setting,value
"COc1cccc2c1C(=O)c1c(O)c3c(c(O)c1C2=O)C[C@@](O)(C(C)=O)C[C@@H]3O[C@H]1C[C@H](NC(=O)OCc2ccc(O[C@@H]3O[C@H](CO)[C@H](O)[C@H](O)[C@H]3O)c([N+](=O)[O-])c2)[C@H](O)[C@H](C)O1 [Daun02, N-[4″-(β-galactopyranosyl)-3″-nitrobenzyloxycarbonyl]daunomycin]",MTT absorbance at 570 nm (yeast cell survival),"Sample C: 2.5 μM Daun02 with beta-gal expressing E. coli BL21, 10 hours, p-value 0.00296 vs control",yeast cell death
same,MTT absorbance at 570 nm (yeast cell survival),"Sample D: 5 μM Daun02 with beta-gal expressing E. coli BL21, 5.5 hours, bacterial background subtracted",low absorption values
same,MTT absorbance at 570 nm (yeast cell survival),"Sample D: 5 μM Daun02 with beta-gal expressing E. coli BL21, 10 hours, p-value 0.00593 vs control",yeast cell death
same,MTT absorbance at 570 nm (yeast cell survival),"Samples A and B: yeast and prodrug, no bacteria (no added beta-gal enzyme), 5.5 and 10 hours",close to the control values
